In ChEMBL document CHEMBL5543108, “Structure-based design and synthesis of BML284 derivatives: A novel class of colchicine-site noncovalent tubulin degradation agents” (Eur J Med Chem, 2024):
Where a name gives a salt, the structure may show the parent alone. Activity calls are given as the source filed them. No cut-off for these calls is given here.

Legend:
K562 = experiment: Antiproliferative activity against human K562 cells assessed as reduction in cell viability measured after 72 hrs; type: functional, cell-based; conditions: K562, 72 h
HeLa = experiment: Antiproliferative activity against human HeLa cells assessed as reduction in cell viability measured after 72 hrs; type: functional, cell-based
Tubulin (Homo sapiens) [1] = target: T1, Tubulin (Homo sapiens) (UniProt P68371+Q9H4B7+P0DPH7+P68366+Q13509+Q71U36+P04350+Q3ZCM7+P07437+P68363+Q9BQE3+Q6PEY2+Q13885+Q9BVA1+Q9BUF5); experiment: Induction of tubulin degradation in human HeLa cells measured after 24 hrs by immunoblot analysis; type: cell-based; conditions: dose <= 50.0 µM
MOLM-13 = experiment: Antiproliferative activity against human MOLM-13 cells assessed as reduction in cell viability measured after 72 hrs; type: functional, cell-based; conditions: MOLM-13, 72 h
Tubulin (Homo sapiens) [2] = target: T1, Tubulin (Homo sapiens); experiment: Induction of tubulin degradation in human HeLa cells at 50 uM measured after 24 hrs by immunoblot analysis; type: cell-based
MCF7 = experiment: cells; conditions: Homo sapiens, MCF7, 72 h
Description: Antiproliferative activity against human MCF7 cells assessed as reduction in cell viability measured after 72 hrs

HCT-116 = experiment: cells; conditions: Homo sapiens, HCT-116, 72 h
Description: Antiproliferative activity against human HCT-116 cells assessed as reduction in cell viability measured after 72 hrs

A2780S = experiment: Antitumor activity against human A2780S cells xenografted in mouse model assessed as tumor growth inhibition at 30 mg/kg, ip administered every two days for 12 days relative to control; type: functional; conditions: 288 h, time 12 day, read-out: TGI
A2780/Taxol [3] = experiment: Antiproliferative activity against human A2780T cells assessed as reduction in cell viability measured after 72 hrs; type: functional, cell-based
A549/TR = experiment: Antiproliferative activity against paclitaxel resistant human A549T cells assessed as reduction in cell viability measured after 72 hrs; type: functional, cell-based
A2780/Taxol [4] = experiment: Antitumor activity against human A2780T cells xenografted in mouse model assessed as tumor growth inhibition at 30 mg/kg, ip administered every two days for 18 days relative to control; type: functional; conditions: 432 h, time 18 day, read-out: TGI
NCI/ADR-RES = experiment: Antiproliferative activity against human MCF7ADR cells assessed as reduction in cell viability measured after 72 hrs; type: functional, cell-based

Structure (SMILES)	IC50 (K562)	IC50 (HeLa)	Activity (Tubulin (Homo sapiens) [1])	IC50 (MOLM-13)	Activity (Tubulin (Homo sapiens) [2])	IC50 (MCF7)	IC50 (HCT-116)	inhibition in vivo at 30 mg/kg (A2780S)	IC50 (A2780/Taxol [3])	IC50 (A549/TR)	inhibition in vivo at 30 mg/kg (A2780/Taxol [4])	IC50 (NCI/ADR-RES)
COc1cccc(-c2cc(NCc3ccc4c(c3)OCO4)ncn2)c1	8630 nM	30800 nM	Dose-Dependent Effect	12500 nM	Active	22800 nM	15800 nM	–	–	–	–	–
CC(=O)O[C@H]1C(=O)[C@@]2(C)[C@H]([C@H](OC(=O)c3ccccc3)[C@]3(O)C[C@H](OC(=O)[C@H](O)[C@@H](NC(=O)c4ccccc4)c4ccccc4)C(C)=C1C3(C)C)[C@]1(OC(C)=O)CO[C@@H]1C[C@@H]2O [PACLITAXEL]	15 nM	–	–	4 nM	–	31.5 nM	–	74.6%	55900 nM	834 nM	23.2%	–
COc1cccc2c1C(=O)c1c(O)c3c(c(O)c1C2=O)C[C@@](O)(C(=O)CO)C[C@@H]3O[C@H]1C[C@H](N)[C@H](O)[C@H](C)O1 [DOXORUBICIN HYDROCHLORIDE]	–	–	–	–	–	–	–	–	–	–	–	8630 nM
COc1cccc(-c2cc(N)nc(NCc3ccc4c(c3)OCO4)c2)c1	19300 nM	48600 nM	inactive	20200 nM	inactive	26500 nM	37500 nM	–	–	–	–	–
CCN(Cc1ccc2c(c1)OCO2)c1cc(-c2cccc(OC)c2)nc(N)n1	40 nM	20 nM	Dose-Dependent Effect	30 nM	–	60 nM	60 nM	–	–	–	–	–
COc1cccc(-c2cc(NCc3ccccc3)nc(N)n2)c1	270 nM	440 nM	Dose-Dependent Effect	360 nM	–	850 nM	920 nM	–	–	–	–	–
Nc1nc(NCc2ccc3c(c2)OCO3)cc(-c2ccccc2)n1	140 nM	460 nM	Dose-Dependent Effect	250 nM	–	1910 nM	910 nM	–	–	–	–	–
COc1cccc(-c2cc(NCc3ccc4c(c3)OCO4)nc(N)n2)c1	100 nM	90 nM	–	190 nM	–	690 nM	520 nM	–	–	–	–	–
Nc1nc(NCc2ccc3c(c2)OCO3)cc(-c2cccc(-c3ccccc3)c2)n1	> 2000 nM	> 2000 nM	–	> 2000 nM	–	> 2000 nM	> 2000 nM	–	–	–	–	–
